The subject of series [1] is passive Arthus reaction. The experiment in a line: Anti-inflammatory activity test: passive Arthus reaction (Example of Test 2). It counts as in vivo, male guinea pigs of the Hartley strain. The settings on record: Table 21, 30 min before antigen. The protocol:
Example of Test 2 (Anti-inflammatory Activity Test)
(§1) Male guinea pigs of the Hartley strain weighing 200~250 g were used.
(2) Experimental Materials
(§2) The anti-ovalbumin rabbit serum (PCA titer=1/80,000) and ovalbumin were used as the antiserum and antigen, respectively.
(§3) The passive Arthus reaction was performed according to the method of Katayama et al. [Katayama, S. et al., Arzeim-Forsch., 31, 1196 (1981)]. That is, guinea pigs were sensitized by an intravenous injection of said anti-ovalbumin rabbit serum (2.5 ml/kg). Thirty minutes after the injection, the Arthus reaction was induced by the intradermal injection of an antigen solution (0.05 ml) containing 0.10 mg of ovalbumin to the abdomen shaved the day before. Two hours after the antigen challenge, the area of intradermal bleeding was measured and used as the index representing the grade of inflammatory reaction. Test compounds were intravenously injected 30 min before the antigen injection. Four guinea pigs per each group were used.
(§4) The percent inhibi- is expressed as the bleeding area of the challenged site (%) of the animal group injected with each compound relative to that (100%) of the group administered with the physiological saline.

A short description of series [2]: Simple acute toxicity test (intravenous injection). It is filed as in vivo, male mice of ddY strain. The settings on record: i.v. (tail vein), ddY mice. How it is done: Example of Test 1 (Simple Acute Toxicity Test)
The simple acute toxicity test was carried out by an intravenous injection of compounds of the present invention.
Into the tail vein of male mice of ddY strain weighing 18~20 g which have been kept under the conditions at the temperature of 23°±1° C. and in the humidity of 55 ±7% were injected a solution of the compound of the present invention dissolved in the physiological saline containing the desired dose per 20 g body weighing 0.2 ml. Two dosages of which were 50 mg/kg and 500 mg/kg body weight were used.

For series [3], the system named is passive Arthus reaction. The experiment in a line: Anti-inflammatory activity test, carried out as Example of Test 2 (Example of Test 3). It is filed as in vivo, male guinea pigs of the Hartley strain. Conditions: Table 22, i.v. How it is done:
as §1, §2, §3, §4
The anti-inflammatory activity test of compounds of the present invention was similarly carried out as in the case of Example of Test 2.

In the case of `CCCOC1OC(CO)C(OC2OC(CO)C(O)C(OS(=O)(=O)[O-])C2O)C(OC2OC(C)C(O)C(O)C2O)C1NC(C)=O.[Na+]` (stereo not drawn) [Compound 10], the figures for the “Percent inhibition (passive Arthus reaction)” value (shortened to “Percent inhibition”) in series [1] (1 mg/kg i.v.) and in series [1] (3 mg/kg i.v.) were 25.5 ± 17.4% and 64.8 ± 3.4%, respectively. Moreover, the Mortality in series [2] (50 mg/kg) and in series [2] (500 mg/kg) was 0/3 each time.
`CCCOC1OC(CO)C(OC2OC(CO)C(OS(=O)(=O)[O-])C(OS(=O)(=O)[O-])C2OS(=O)(=O)[O-])C(OC2OC(C)C(O)C(O)C2O)C1NC(C)=O.[Na+].[Na+].[Na+]` (stereo not drawn) [Compound 12]: the “Percent inhibition” value in series [1] (1 mg/kg i.v.) came to 45.3 ± 6.7%; in series [1] (3 mg/kg i.v.) it was 67.8 ± 5.2%. For the same molecule, the Mortality in series [2] (50 mg/kg) and in series [2] (500 mg/kg) was 0/3 throughout.
`CCCOC1OC(CO)C(OC2OC(CO)C(O)C(OCC(=O)[O-])C2O)C(OC2OC(C)C(O)C(O)C2O)C1NC(C)=O.[Na+]` (stereo not drawn) [Compound 17]: the “Percent inhibition” value in series [1] (1 mg/kg i.v.) is 45.5 ± 3.5%; in series [1] (3 mg/kg i.v.), 14.9 ± 14.5%. In addition, the Mortality in series [2] (50 mg/kg) and in series [2] (500 mg/kg) was 0/3 throughout.
`CCCOC1OC(CO)C(OC2OC(CO)C(O)C(OCC(=O)[O-])C2OCC(=O)[O-])C(OC2OC(C)C(O)C(O)C2O)C1NC(C)=O.[Na+].[Na+]` (stereo not drawn) [Compound 18]: the figures for the “Percent inhibition” value in series [1] (1 mg/kg i.v.) and in series [1] (3 mg/kg i.v.) were 75.7 ± 3.9% and 60.8 ± 9.8%, respectively. The Mortality in series [2] (50 mg/kg) and in series [2] (500 mg/kg) was 0/3 each time.
Turning to `CCCOC1OC(CO)C(OC2OC(C)C(O)C(O)C2O)C(OC2OC(CO)C(O)C(OS(=O)(=O)[O-])C2O)C1NC(C)=O.[Na+]` (stereo not drawn) [Compound 26], the results for the “Percent inhibition” value in series [1] (1 mg/kg i.v.) and in series [1] (3 mg/kg i.v.) were 75.5 ± 1.6% and 77.3 ± 8.0%, respectively. Moreover, the Mortality in series [2] (50 mg/kg) and in series [2] (500 mg/kg) was 0/3 in each case.
On to `CCCOC1OC(CO)C(OC2OC(C)C(O)C(O)C2O)C(OC2OC(CO)C(O)C(OCC(=O)[O-])C2O)C1NC(C)=O.[Na+]` (stereo not drawn) [Compound 30], for which the results for the “Percent inhibition” value in series [1] (1 mg/kg i.v.) and in series [1] (3 mg/kg i.v.) were 21.0 ± 5.9% and 15.4 ± 5.3%, respectively. The Mortality in series [2] (50 mg/kg) and in series [2] (500 mg/kg) was 0/3 each time.
As for `CCCOC1OC(CO)C(OC2OC(C)C(O)C(O)C2O)C(OC2OC(CO)C(O)C(OCC(=O)[O-])C2OCC(=O)[O-])C1NC(C)=O.[Na+].[Na+]` (stereo not drawn) [Compound 31], the “Percent inhibition” value in series [1] (1 mg/kg i.v.) was determined as 74.5 ± 6.7%; in series [1] (3 mg/kg i.v.), 15.9 ± 6.4%. Further, the Mortality in series [2] (50 mg/kg) and in series [2] (500 mg/kg) was 0/3 throughout.
In the case of `CCCOC1OC(CO)C(OC2OC(C)C(O)C(O)C2O)C(OC2OC(CO)C(O)C(O)C2OCC(=O)[O-])C1NC(C)=O.[Na+]` (stereo not drawn) [Compound 32], the “Percent inhibition” value in series [1] (1 mg/kg i.v.) was 61.0 ± 4.2%; in series [1] (3 mg/kg i.v.) it was 57.4 ± 8.7%. In addition, the Mortality in series [2] (50 mg/kg) and in series [2] (500 mg/kg) was 0/3 throughout.
For the molecule `CCCOC1OC(CO)C(OC2OC(CO)C(O)C(OC3(C(=O)[O-])CC(O)C(NC(C)=O)C(C(O)C(O)CO)O3)C2O)C(OC2OC(C)C(O)C(O)C2O)C1NC(C)=O.[Na+]` (stereo not drawn) [Compound 40], the “Percent inhibition” value amounted to 47.3 ± 7.4% in series [1] (1 mg/kg i.v., 1 mg/kg) and 63.5 ± 8.3% in series [1] (3 mg/kg i.v., 3 mg/kg). The Mortality in series [2] (50 mg/kg) and in series [2] (500 mg/kg) was 0/3 each time.
`CCCCCCCCCCCCCCCCCCCCCCCC(=O)NC(COC1OC(CO)C(OC2OC(CO)C(O)C(OC3(C(=O)[O-])CC(O)C(NC(C)=O)C(C(O)C(O)CO)O3)C2O)C(OC2OC(C)C(O)C(O)C2O)C1NC(C)=O)C(O)CCCCCCCCCCCCCCC.[Na+]` (stereo not drawn) [Compound 46]: the entries for the “Percent inhibition” value in series [1] (1 mg/kg i.v.) and in series [1] (3 mg/kg i.v.) were 25.6 ± 11.3% and 74.4 ± 16.3%, respectively. For the same molecule, the Mortality in series [2] (50 mg/kg) and in series [2] (500 mg/kg) was 0/3 in each case.
As for `CC(=O)NC1C(O)CC(OC2C(O)C(CO)OC(OC3C(CO)OC(OCC4OC(O)C(O)C(O)C4O)C(NC(C)=O)C3OC3OC(C)C(O)C(O)C3O)C2O)(C(=O)[O-])OC1C(O)C(O)CO.[Na+]` (stereo not drawn) [Compound 53], the “Percent inhibition” value in series [1] (1 mg/kg i.v.) came to 44.8 ± 15.0%; in series [1] (3 mg/kg i.v.), 58.7 ± 9.5%. Besides, the Mortality in series [2] (50 mg/kg) and in series [2] (500 mg/kg) was 0/3 in each case.
`CC(=O)NC1C(O)CC(OC2C(O)C(CO)OC(OC3C(CO)OC(OC4C(O)C(O)OC(CO)C4O)C(NC(C)=O)C3OC3OC(C)C(O)C(O)C3O)C2O)(C(=O)[O-])OC1C(O)C(O)CO.[Na+]` (stereo not drawn) [Compound 62]: the “Percent inhibition” value stood at 41.9 ± 8.9% in series [1] (1 mg/kg i.v.) and 57.4 ± 7.3% in series [1] (3 mg/kg i.v.). The Mortality in series [2] (50 mg/kg) and in series [2] (500 mg/kg) was 0/3 in each case.
Take `CCCOC1OC(CO)C(OC2OC(C)C(O)C(O)C2O)C(OC2OC(CO)C(O)C(OC3(C(=O)[O-])CC(O)C(NC(C)=O)C(C(O)C(O)CO)O3)C2O)C1NC(C)=O.[Na+]` (stereo not drawn) [Compound 90]: the “Percent inhibition” value is 65.4 ± 8.5% in series [1] (1 mg/kg i.v., 1 mg/kg) and 69.6 ± 6.3% in series [1] (3 mg/kg i.v., 3 mg/kg). Further, the Mortality in series [2] (50 mg/kg) and in series [2] (500 mg/kg) was 0/3 each time.
On to `CCCOC1OC(CO)C(OC2OC(CO)C(O)C(OC3(C(=O)[O-])CC(O)C(NC(C)=O)C(C(O)C(O)CO)O3)C2O)C(OC2OC(C)C(O)C(O)C2O)C1NC(C)=O.[Na+]` (stereo not drawn) [Compound 121], for which the “Percent inhibition” value came to 42.1 ± 8.3% in series [1] (1 mg/kg i.v., 1 mg/kg) and 59.8 ± 5.3% in series [1] (3 mg/kg i.v., 3 mg/kg). Further, the Mortality in series [2] (50 mg/kg) and in series [2] (500 mg/kg) was 0/3 throughout.
In the case of `CCCOC1OC(CO)C(OC2OC(C)C(O)C(O)C2O)C(OC2OC(CO)C(O)C(OC3(C(=O)[O-])CC(O)C(NC(C)=O)C(C(O)C(O)CO)O3)C2O)C1NC(C)=O.[Na+]` (stereo not drawn) [Compound 123], the “Percent inhibition” value in series [1] (1 mg/kg i.v., 1 mg/kg) came out at 76.8 ± 12.0%; in series [1] (3 mg/kg i.v., 3 mg/kg) it was 84.5 ± 5.1%. In addition, the Mortality in series [2] (50 mg/kg) and in series [2] (500 mg/kg) was 0/3 in each case.
As to `COc1ccc(OC2OC(CO)C(OC3OC(CO)C(O)C(OS(=O)(=O)[O-])C3OC(=O)C(C)(C)C)C(OC3OC(C)C(O)C(O)C3O)C2OC(=O)C(C)(C)C)cc1.[Na+]` (stereo not drawn) [Compound 142], the “Percent inhibition” value in series [3] (0.01 mg/kg) was -3.3 ± 2.7%; in series [3] (0.1 mg/kg) it was 57.6 ± 12.6%; in series [3] (1 mg/kg), 84.8 ± 4.6%.
Turning to `COc1ccc(OC2OC(CO)C(OC3OC(CO)C(O)C(OS(=O)(=O)[O-])C3O)C(OC3OC(C)C(O)C(O)C3O)C2O)cc1.[Na+]` (stereo not drawn) [Compound 143], the “Percent inhibition” value is 84.1 ± 5.2% in series [3] (0.01 mg/kg), 52.5 ± 12.2% in series [3] (0.1 mg/kg) and 70.1 ± 1.8% in series [3] (1 mg/kg).
As for `COc1ccc(OC2OC(CO)C(OC3OC(CO)C(OS(=O)(=O)[O-])C(O)C3O)C(OC3OC(C)C(O)C(O)C3O)C2O)cc1.[Na+]` (stereo not drawn) [Compound 144], the entries for the “Percent inhibition” value in series [3] (0.01 mg/kg), in series [3] (0.1 mg/kg) and in series [3] (1 mg/kg) were -15.2 ± 6.7%, 22.0 ± 30.1% and 23.9 ± 14.7%, respectively.
As to `CCCOC1OC(CO)C(OC2OC(C)C(O)C(O)C2O)C(OC2OC(CO)C(O)C(O)C2OS(=O)(=O)[O-])C1NC(C)=O.[Na+]` (stereo not drawn) [Compound 175], the “Percent inhibition” value came out at 44.6 ± 20.1% in series [3] (0.01 mg/kg), 62.5 ± 16.1% in series [3] (0.1 mg/kg) and 67.1 ± 4.4% in series [3] (1 mg/kg).
Regarding `CCCOC1OC(CO)C(OC2OC(C)C(O)C(O)C2O)C(OC2OC(CO)C(OS(=O)(=O)[O-])C(OS(=O)(=O)[O-])C2OS(=O)(=O)[O-])C1NC(C)=O.[Na+].[Na+].[Na+]` (stereo not drawn) [Compound 176], the results for the “Percent inhibition” value in series [3] (0.01 mg/kg), in series [3] (0.1 mg/kg) and in series [3] (1 mg/kg) were 57.5 ± 14.7%, 83.9 ± 10.1% and 92.4 ± 3.8%, respectively.
Turning to `CCCOC1OC(CO)C(OC2OC(C)C(O)C(O)C2O)C(OC2OC(CO)C(O)C(O)C2OS(=O)(=O)[O-])C1NC(C)=O.[Na+]` (stereo not drawn) [Compound 188], the “Percent inhibition” value is listed as 57.2 ± 14.5% in series [3] (0.01 mg/kg), 86.2 ± 1.7% in series [3] (0.1 mg/kg) and 84.2 ± 5.4% in series [3] (0.001 (unit of dose not given)).
For the molecule `CCCOC1OC(CO)C(OC2OC(C)C(O)C(O)C2O)C(OC2OC(CO)C(O)C(OS(=O)(=O)[O-])C2O)C1NC(C)=O.[Na+]` (stereo not drawn) [Compound 189], the “Percent inhibition” value in series [3] (0.01 mg/kg) was determined as 73.6 ± 8.9%; in series [3] (0.1 mg/kg), 59.8 ± 9.7%; in series [3] (0.001 (unit of dose not given)) it was 90.9 ± 4.0%.

For the origin of these results see patent US5763413A, “Lewis-associated compound, process for producing the same, and anti-inflammatory” (MECT Corporation, priority 1993, dated 1998).
